# Measurements: patent publication US20240228457A1, “AKT3 MODULATORS” (Georgiamune Inc., priority 2020, published 2024)
# Biological target: T1, Akt3 (Homo sapiens, UniProt Q9Y243)
# T1 construct: endogenous in cells; host or cells: human CD4+/CD45RA+/CD25- naive T cells under iTreg induction conditions
# Assay: Akt3 inhibition activity of selected compounds
# Type: cell-based
# T1 sequence (Q9Y243 whole entry): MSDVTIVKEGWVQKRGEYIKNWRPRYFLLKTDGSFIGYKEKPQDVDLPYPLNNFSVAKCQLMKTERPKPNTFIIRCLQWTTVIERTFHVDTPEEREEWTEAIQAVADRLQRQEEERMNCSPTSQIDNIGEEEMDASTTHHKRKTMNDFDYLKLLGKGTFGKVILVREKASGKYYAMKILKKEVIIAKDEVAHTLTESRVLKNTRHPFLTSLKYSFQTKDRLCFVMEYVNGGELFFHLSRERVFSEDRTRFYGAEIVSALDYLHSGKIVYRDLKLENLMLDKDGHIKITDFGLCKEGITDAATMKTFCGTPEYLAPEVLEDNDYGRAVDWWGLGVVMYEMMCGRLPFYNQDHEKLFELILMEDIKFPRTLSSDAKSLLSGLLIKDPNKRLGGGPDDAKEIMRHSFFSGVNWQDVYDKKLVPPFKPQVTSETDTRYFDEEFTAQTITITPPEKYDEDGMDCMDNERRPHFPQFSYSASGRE
row,SMILES,IC50
1,"O=C(Nc1ccc(Nc2ccncc2)cc1)c1cccc(Nc2ccnc3ccc(F)cc23)c1 [Compound 3, 3-((6-fluoroquinolin-4-yl)amino)-N-(4-(pyridin-4-ylamino)phenyl)benzamide]",< 2000 nM
2,"Cc1cc(Nc2ccc(C(=O)Nc3cccc(Nc4ccncc4)c3)cc2)cc(N)n1 [Compound 20, 4-(2-amino-6-methylpyridin-4-ylamino)-N-(3-(pyridin-4-ylamino)phenyl)benzamide]",< 5000 nM
3,"Cc1c(Nc2ccc(C(=O)Nc3cccc(Nc4ccncc4)c3)cc2)ccnc1N [Compound 21, 4-(2-amino-3-methylpyridin-4-ylamino)-N-(3-(pyridin-4-ylamino)phenyl)benzamide]",< 2000 nM

# The next lines start with the values.
row,IC50,SMILES
1,< 5000 nM,"Nc1cc(Nc2ccc(C(=O)Nc3cccc(Nc4ccncc4)c3)cc2)ccn1 [Compound 19, 4-(2-aminopyridin-4-ylamino)-N-(3-(pyridin-4-ylamino)phenyl)benzamide]"
2,< 2000 nM,"Cc1cccc2nccc(Nc3cccc(C(=O)Nc4ccc(Nc5ccncc5)cc4)c3)c12 [Compound 18, 3-((5-methylquinolin-4-yl)amino)-N-(4-(pyridin-4-ylamino)phenyl)benzamide]"

# Biological target: T1, Akt3
# Assay: Akt3 activation activity of selected compounds
# Type: cell-based
row,EC50,SMILES
1,< 5 µM,"N#Cc1ccc2nccc(Nc3cccc(C(=O)Nc4ccc(Nc5ccncc5)cc4)c3)c2c1 [Compound 2, 3-((6-cyanoquinolin-4-yl)amino)-N-(4-(pyridin-4-ylamino)phenyl)benzamide]"
